Laboratory results from PubChem BioAssay (NCI).
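Following 48 hours of exposure in 96-well plates, responses at five concentrations were used to interpolate endpoints linearly. GI50 marks 50% less growth. TGI: total growth inhibition.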

Experiments:
Assay in all cases: DTP human tumour cell line panel, 48 h
786-0 renal = test system: 786-0 renal
A498 renal = test system: A498 renal
A549 NSCLC = test system: A549 NSCLC
ACHN renal = test system: ACHN renal
BT-549 breast = test system: BT-549 breast
CAKI-1 renal = test system: CAKI-1 renal
CCRF-CEM leukemia = test system: CCRF-CEM leukemia
COLO 205 colon = test system: COLO 205 colon
DU-145 prostate = test system: DU-145 prostate
HCC-2998 colon = test system: HCC-2998 colon
HCT-116 colon = test system: HCT-116 colon
HCT-15 colon = test system: HCT-15 colon
HL-60(TB) leukemia = test system: HL-60(TB) leukemia
HOP-62 NSCLC = test system: HOP-62 NSCLC
HOP-92 NSCLC = test system: HOP-92 NSCLC
HS 578T breast = test system: HS 578T breast
HT29 colon = test system: HT29 colon
IGROV1 ovarian = test system: IGROV1 ovarian
K-562 leukemia = test system: K-562 leukemia
KM12 colon = test system: KM12 colon
LOX IMVI melanoma = test system: LOX IMVI melanoma
M14 melanoma = test system: M14 melanoma
MALME-3M melanoma = test system: MALME-3M melanoma
MCF7 breast = test system: MCF7 breast
MDA-MB-231 breast = test system: MDA-MB-231 breast
MDA-MB-435 = test system: MDA-MB-435
MOLT-4 leukemia = test system: MOLT-4 leukemia
NCI-H226 lung = test system: NCI-H226 lung
NCI-H23 lung = test system: NCI-H23 lung
NCI-H460 lung = test system: NCI-H460 lung
NCI-H522 lung = test system: NCI-H522 lung
NCI/ADR-RES ovarian = test system: NCI/ADR-RES ovarian
OVCAR-3 ovarian = test system: OVCAR-3 ovarian
OVCAR-4 ovarian = test system: OVCAR-4 ovarian
OVCAR-5 ovarian = test system: OVCAR-5 ovarian
OVCAR-8 ovarian = test system: OVCAR-8 ovarian
PC-3 prostate = test system: PC-3 prostate
RPMI-8226 leukemia = test system: RPMI-8226 leukemia
RXF 393 renal = test system: RXF 393 renal
SF-268 CNS = test system: SF-268 CNS
SF-295 CNS = test system: SF-295 CNS
SF-539 CNS = test system: SF-539 CNS
SK-MEL-2 melanoma = test system: SK-MEL-2 melanoma
SK-MEL-28 melanoma = test system: SK-MEL-28 melanoma
SK-MEL-5 melanoma = test system: SK-MEL-5 melanoma
SK-OV-3 ovarian = test system: SK-OV-3 ovarian
SN12C renal = test system: SN12C renal
SNB-19 CNS = test system: SNB-19 CNS
SNB-75 CNS = test system: SNB-75 CNS
SR leukemia = test system: SR leukemia
SW-620 colon = test system: SW-620 colon
T-47D breast = test system: T-47D breast
TK-10 renal = test system: TK-10 renal
U251 CNS = test system: U251 CNS
UACC-257 melanoma = test system: UACC-257 melanoma
UACC-62 melanoma = test system: UACC-62 melanoma
UO-31 renal = test system: UO-31 renal

`Nc1c(C(=O)c2cccc(C(O)CO)c2)cnn1-c1ccc(F)cc1` (centres undefined) gave a GI50 (786-0 renal) of over 25 µM, a TGI (786-0 renal) of over 25 µM and a GI50 (A498 renal) of over 25 µM. It also gave a TGI (A498 renal) of over 25 µM, a GI50 (A549 NSCLC) of over 25 µM and a TGI (A549 NSCLC) of over 25 µM. It also gave a GI50 (ACHN renal) of over 25 µM, a TGI (ACHN renal) of over 25 µM and a GI50 (BT-549 breast) of over 25 µM. It also gave a TGI (BT-549 breast) of over 25 µM, a GI50 (CAKI-1 renal) of over 25 µM and a TGI (CAKI-1 renal) of over 25 µM. It also gave a GI50 (CCRF-CEM leukemia) of over 25 µM, a TGI (CCRF-CEM leukemia) of over 25 µM and a GI50 (COLO 205 colon) of over 25 µM. It also gave a TGI (COLO 205 colon) of over 25 µM, a GI50 (DU-145 prostate) of over 25 µM and a TGI (DU-145 prostate) of over 25 µM. It also gave a GI50 (HCC-2998 colon) of over 25 µM, a TGI (HCC-2998 colon) of over 25 µM and a GI50 (HCT-116 colon) of over 25 µM. It also gave a TGI (HCT-116 colon) of over 25 µM, a GI50 (HCT-15 colon) of over 25 µM and a TGI (HCT-15 colon) of over 25 µM. For the same compound, the GI50 (HL-60(TB) leukemia) was over 12.9 µM, the TGI (HL-60(TB) leukemia) was over 25 µM and the GI50 (HOP-62 NSCLC) was over 25 µM. The TGI (HOP-62 NSCLC) was over 25 µM, the GI50 (HOP-92 NSCLC) was over 25 µM and the TGI (HOP-92 NSCLC) was over 25 µM. The GI50 (HS 578T breast) was over 25 µM, the TGI (HS 578T breast) was over 25 µM and the GI50 (HT29 colon) was over 25 µM. For the same compound, the TGI (HT29 colon) was over 25 µM, the GI50 (IGROV1 ovarian) was over 25 µM and the TGI (IGROV1 ovarian) was over 25 µM. The GI50 (K-562 leukemia) was over 25 µM, the TGI (K-562 leukemia) was over 25 µM and the GI50 (KM12 colon) was over 25 µM. It also gave a TGI (KM12 colon) of over 25 µM, a GI50 (LOX IMVI melanoma) of over 25 µM and a TGI (LOX IMVI melanoma) of over 25 µM. The GI50 (M14 melanoma) was over 25 µM, the TGI (M14 melanoma) was over 25 µM and the GI50 (MALME-3M melanoma) was over 25 µM. It also gave a TGI (MALME-3M melanoma) of over 25 µM, a GI50 (MCF7 breast) of over 25 µM and a TGI (MCF7 breast) of over 25 µM. For the same compound, the GI50 (MDA-MB-231 breast) was over 25 µM, the TGI (MDA-MB-231 breast) was over 25 µM and the GI50 (MDA-MB-435) was over 25 µM. The TGI (MDA-MB-435) was over 25 µM, the GI50 (MOLT-4 leukemia) was over 25 µM and the TGI (MOLT-4 leukemia) was over 25 µM. The GI50 (NCI-H226 lung) was over 25 µM, the TGI (NCI-H226 lung) was over 25 µM and the GI50 (NCI-H23 lung) was over 25 µM. It also gave a TGI (NCI-H23 lung) of over 25 µM, a GI50 (NCI-H460 lung) of over 25 µM and a TGI (NCI-H460 lung) of over 25 µM. It also gave a GI50 (NCI-H522 lung) of over 25 µM, a TGI (NCI-H522 lung) of over 25 µM and a GI50 (NCI/ADR-RES ovarian) of over 25 µM. The TGI (NCI/ADR-RES ovarian) was over 25 µM, the GI50 (OVCAR-3 ovarian) was over 25 µM and the TGI (OVCAR-3 ovarian) was over 25 µM. The GI50 (OVCAR-4 ovarian) was over 25 µM, the TGI (OVCAR-4 ovarian) was over 25 µM and the GI50 (OVCAR-5 ovarian) was over 25 µM. It also gave a TGI (OVCAR-5 ovarian) of over 25 µM, a GI50 (OVCAR-8 ovarian) of over 25 µM and a TGI (OVCAR-8 ovarian) of over 25 µM. For the same compound, the GI50 (PC-3 prostate) was over 25 µM, the TGI (PC-3 prostate) was over 25 µM and the GI50 (RPMI-8226 leukemia) was over 25 µM. For the same compound, the TGI (RPMI-8226 leukemia) was over 25 µM, the GI50 (RXF 393 renal) was over 25 µM and the TGI (RXF 393 renal) was over 25 µM. The GI50 (SF-268 CNS) was over 25 µM, the TGI (SF-268 CNS) was over 25 µM and the GI50 (SF-295 CNS) was over 25 µM. It also gave a TGI (SF-295 CNS) of over 25 µM, a GI50 (SF-539 CNS) of over 25 µM and a TGI (SF-539 CNS) of over 25 µM. The GI50 (SK-MEL-2 melanoma) was over 25 µM, the TGI (SK-MEL-2 melanoma) was over 25 µM and the GI50 (SK-MEL-28 melanoma) was over 25 µM. The TGI (SK-MEL-28 melanoma) was over 25 µM, the GI50 (SK-MEL-5 melanoma) was over 25 µM and the TGI (SK-MEL-5 melanoma) was over 25 µM. It also gave a GI50 (SK-OV-3 ovarian) of over 25 µM, a TGI (SK-OV-3 ovarian) of over 25 µM and a GI50 (SN12C renal) of over 25 µM. The TGI (SN12C renal) was over 25 µM, the GI50 (SNB-19 CNS) was over 25 µM and the TGI (SNB-19 CNS) was over 25 µM. The GI50 (SNB-75 CNS) was over 25 µM, the TGI (SNB-75 CNS) was over 25 µM and the GI50 (SR leukemia) was over 25 µM. For the same compound, the TGI (SR leukemia) was over 25 µM, the GI50 (SW-620 colon) was over 25 µM and the TGI (SW-620 colon) was over 25 µM. The GI50 (T-47D breast) was over 25 µM, the TGI (T-47D breast) was over 25 µM and the GI50 (TK-10 renal) was over 25 µM. It also gave a TGI (TK-10 renal) of over 25 µM, a GI50 (U251 CNS) of over 25 µM and a TGI (U251 CNS) of over 25 µM. The GI50 (UACC-257 melanoma) was over 25 µM, the TGI (UACC-257 melanoma) was over 25 µM and the GI50 (UACC-62 melanoma) was over 25 µM. For the same compound, the TGI (UACC-62 melanoma) was over 25 µM, the GI50 (UO-31 renal) was over 25 µM and the TGI (UO-31 renal) was over 25 µM.
